Usually MBC stands for the smallest concentration meeting the test's criterion for killing. The term MIC denotes the smallest concentration in the dilution series that meets the test's criterion for growth inhibition. As usually defined, the IC50 is the midpoint of a concentration-inhibition curve.

Consider three compounds from PMC9228535, “Antistaphylococcal Activities and ADME-Related Properties of Chlorinated Arylcarbamoylnaphthalenylcarbamates” (Pharmaceuticals, 2022).

Data set [1] relates to Staphylococcus aureus ATCC 29213. As to the kind of experiment: MBC, agar aliquot subculture method. Format: cell-based. To be noted: ATCC29213, SA = S. aureus ATCC 29213, read-out: MBC. How it is done:
(§1) All the investigated compounds were screened for in vitro antibacterial activity against the reference and quality control strain Staphylococcus aureus ATCC 29213 and clinical isolates of methicillin-resistant S. aureus (MRSA) 63718, SA 630, and SA 3202 [14]. Activities are expressed as the minimum inhibitory concentrations (MICs), see Table 2. In addition to the MICs, the minimum bactericidal concentrations (MBCs) were also determined.
(§2) For the S. aureus and MRSA isolates, the agar aliquot subculture method was used as a test for bactericidal agents. After the MIC value determination, the inoculum was transferred to Mueller–Hinton (Oxoid) agar using a multipoint inoculator. The plates were incubated in a thermostat at 37 °C for 24 h. The lowest concentration of test compound at which ≤5 colonies were obtained was then evaluated as MBC, corresponding to a 99.9% decrease in CFU relative to the original inoculum.

For data set [2], the system named is MRSA 63718. As to the kind of experiment: MBC, agar aliquot subculture method. It counts as cell-based. Particulars: Staphylococcus aureus, MRSA. On the procedure:
as §1, §2

In data set [3] the test system is MRSA SA 630. As to the kind of experiment: MBC, agar aliquot subculture method. It counts as cell-based. To be noted: Staphylococcus aureus. How it is done:
as §1, §2

The test system of data set [4] is MRSA SA 3202. As to the kind of experiment: MBC, agar aliquot subculture method. It counts as cell-based. Particulars: Staphylococcus aureus. How it is done:
as §1, §2

Data set [5] concerns Enterococcus faecalis ATCC 29212. As to the kind of experiment: MIC, microtitration broth method. It counts as cell-based. To be noted: for MIC: ATCC29212, EF = Enterococcus faecalis, 24 h, read-out: MIC. How it is done: (§3) In vitro antibacterial activity of the synthesized compounds was evaluated against representatives of multidrug-resistant bacteria, three clinical isolates of methicillin-resistant S. aureus: clinical isolate of animal origin, MRSA 63718 (Department of Infectious Diseases and Microbiology, Faculty of Veterinary Medicine, University of Veterinary Sciences Brno, Czech Republic), carrying the mecA gene; and MRSA SA 630 [46] and MRSA SA 3202 [46] (National Institute of Public Health, Prague, Czech Republic), both of human origin. Suspected colonies were confirmed by PCR; a 108bp fragment specific for S. aureus was detected. All isolates were tested for the presence of the mecA gene encoding methicillin resistance. […] Vancomycin-susceptible methicillin-susceptible S. aureus (VS-MSSA) ATCC 29213, obtained from the American Type Culture Collection, was used as the reference and quality control strain. Enterococcus faecalis ATCC 29212 was obtained from the American Type Culture Collection and used as the reference and quality control strain.
(§4) The minimum inhibitory concentrations (MICs) were evaluated by the microtitration broth method according to the CLSI [64, 65] with some modifications. The compounds were dissolved in DMSO (Sigma, St. Louis, MO, USA) to get a concentration […] and diluted in a microtitration plate in an appropriate medium, namely, Cation Adjusted Mueller–Hinton (CaMH, Oxoid, Basingstoke, UK) for staphylococci (S. aureus ATCC 29213, clinical isolates of MRSA 63718, SA 630, and SA 3202) and brain heart infusion (BHI, Oxoid) for E. faecalis ATCC 29212, to reach the final concentration of 256-0.125 µg/mL. The plate was inoculated by the tested microorganisms. The final concentration of bacterial cells was 10^5 for bacteria. Ampicillin (Sigma) was used as reference drugs. A drug-free control and a sterility control were included. The plates were incubated for 24 h at 37 °C for staphylococci and E. faecalis ATCC 29212 (stability evaluation of the carbamates, see Supplementary materials, Table S1). […] The experiments were repeated three times.

The nature of data set [6]: Lipophilicity determination by RP-HPLC (log k, log D). It counts as physicochemical. Particulars: for log D6.5 / log D7.4 / log k: RP-HPLC; for log D6.5: MeOH 72%/acetate buffered saline pH 6.5; for log D7.4: MeOH 72%/acetate buffered saline pH 7.4; for log k: MeOH 72%/water 28%. How it is done:
Lipophilicity was measured by reversed-phase high performance liquid chromatography (RP-HPLC) under isocratic conditions with methanol as the organic modifier in the aqueous mobile phase and the logarithm of the capacity factor k was calculated, which is used as the lipophilicity index converted to the log P scale. In addition to the log k values, the logarithm of the distribution coefficient DpH at pH 6.5 and 7.4 was determined to clarify the behavior of the compounds under physiological conditions and possible ionization. Instead of water, a buffer of suitable pH was used as part of the mobile phase. In addition to the above-mentioned experimental methods, commercially available ChemBioDraw Ultra 13.0 and ACD/Percepta ver. […] In addition to lipophilicity, other parameters discussed in Ro5, such as molecular weight, number of H-bond donors/acceptors, as well as parameters not reported in Ro5, but characterizing the physicochemical properties of the prepared molecules, such as number of rotatable bonds, were predicted using ACD/Percepta. Moreover, for each R substituent, bulkiness expressed as molar volume (MV [cm^3]), a parameter describing the tail length/branching of each carbamates, was calculated.
A HPLC separation module Agilent 1200 Series (Agilent Technologies, Santa Clara, CA, USA) equipped with a Dual Absorbance Detector (DAD SL G1315C, Agilent Technologies) was used. A chromatographic column Symmetry® C18 5 μm, 4.6 × 250 mm, Part No. W21751W016 (Waters Corp, Milford, MA, USA) was used. The HPLC separation process was monitored by ChemStation for LC 3D systems (Agilent Technologies). […] The total flow of the column was 1.0 mL/min, injection 20 μL, column temperature 40 °C, and sample temperature 10 °C. The detection wavelength of 210 nm was chosen. A KI methanolic solution was used for the determination of the dead times (tD). Retention times (tR) were measured in minutes. The capacity factors k were calculated according to the formula k = (tR − tD)/tD, where tR is the retention time of the solute, and tD is the dead time obtained using an unretained analyte. The distribution coefficients DpH were calculated according to the formula DpH = (tR − tD)/tD. Each experiment was repeated three times.

In data set [7] the test system is Staphylococcus aureus ATCC 29213. As to the kind of experiment: MIC, microtitration broth method. It counts as cell-based. To be noted: ATCC29213, SA = S. aureus ATCC 29213, 24 h, read-out: MIC. On the procedure: as §1, §3, §4
The test system of data set [8] is MRSA 63718. In words: MIC, microtitration broth method. It counts as cell-based. Particulars: Staphylococcus aureus, MRSA, 24 h. On the procedure:
as §1, §3, §4

Data set [9] deals with MRSA SA 630. In words: MIC, microtitration broth method. Format: cell-based. To be noted: Staphylococcus aureus, 24 h. On the procedure:
as §1, §3, §4

Data set [10] has as its system MRSA SA 3202. As to the kind of experiment: MIC, microtitration broth method. It counts as cell-based. Particulars: Staphylococcus aureus, 24 h. How it is done: as §1, §3, §4
In the next data set the test system is THP-1 cells. In words: In vitro cytotoxicity assay (WST-1). Format: cell-based. To be noted: Homo sapiens; THP-1, 24 h, ± SD, n = 6; read-out: IC50. How it is done: Preliminary in vitro cytotoxicity screening of the investigated compounds was performed using human monocytic leukemia THP-1 cells, see Table 2. The ability to inhibit the human cancer cell viability (IC50) of the compounds was compared to camptothecin toxicity (0.16 ± 0.07 μM). […] However, these values are up to two orders of magnitude higher than their significant antistaphyloccocal concentrations. This fact is also taken into account in the calculated selectivity index (SI), Table 2, where for only three compounds the SI is <20, while for the rest of the agents SI is >20, and for some derivatives even 100 and more. Thus, based on all these observations, it can be concluded that all the tested derivatives can be considered as in vitro non-toxic compounds for the subsequent design of new therapeutic agents.
The human THP-1 cell line (European Collection of Cell Cultures, Salisbury, UK) was cultured in RPMI 1640 medium supplemented with 10% fetal bovine serum, 2% L-glutamine, 1% penicillin, and streptomycin at 37 °C with 5% CO2. Cells were passaged at approximately 1-week intervals. All the tested compounds were prepared and dissolved as mentioned in our previous work.

Values after ≈ are worked out from the molar mass of the structure shown.

On to `O=C(NC1CCCC1)Oc1c(C(=O)Nc2cc(Cl)c(Cl)cc2Cl)ccc2ccccc12` [Compound 10, 2-[N-(2,4,5-Trichlorophenyl)carbamoyl]naphthalen-1-yl cyclopentyl carbamate], for which the MBC in data set [1] was found to be 0.262 µM (≈ 0.125 µg/mL); against MRSA 63718 [2] it was 0.262 µM (≈ 0.125 µg/mL); with MRSA SA 630 [3], 1.05 µM (≈ 0.5 µg/mL); against MRSA SA 3202 [4], 2.09 µM (≈ 0.999 µg/mL). Moreover, the MIC in data set [5] came to 268 µM (≈ 128 µg/mL); in [7], 0.262 µM (≈ 0.125 µg/mL); against MRSA 63718 [8], 0.262 µM (≈ 0.125 µg/mL); with MRSA SA 630 [9], 0.262 µM (≈ 0.125 µg/mL); in the data set on MRSA SA 3202 [10], 2.09 µM (≈ 0.999 µg/mL). For the same compound, the “lipophilicity (experimental log k/log D, approximate)” value in [6] is on record as “ca. 1.15”. Further, in [6], the “log D6.5” value is 1.1521. Moreover, in [6], the “log D7.4” value is 1.1515. The log k in data set [6] came to 1.1481. Besides, the IC50 in the data set on THP-1 cells was found to be 3.23 ± 0.29 µM.
As for `CCCCCCCNC(=O)Oc1c(C(=O)Nc2cc(Cl)c(Cl)cc2Cl)ccc2ccccc12` [Compound 7, 2-[N-(2,4,5-Trichlorophenyl)carbamoyl]naphthalen-1-yl heptyl carbamate], the MBC in data set [1] is 0.124 µM (≈ 0.063 µg/mL); against MRSA 63718 [2] it was 0.246 µM (≈ 0.125 µg/mL); in the data set with MRSA SA 630 [3] it was 0.492 µM (≈ 0.25 µg/mL); in the data set with MRSA SA 3202 [4], 0.246 µM (≈ 0.125 µg/mL). Besides, the MIC in data set [5] was 63 µM (≈ 32 µg/mL); in data set [7], 0.124 µM (≈ 0.063 µg/mL); in the data set on MRSA 63718 [8] it was 0.246 µM (≈ 0.125 µg/mL); in the data set on MRSA SA 630 [9], 0.246 µM (≈ 0.125 µg/mL); with MRSA SA 3202 [10], 0.246 µM (≈ 0.125 µg/mL). Besides, in data set [5] (E. faecalis ATCC 29212), the “anti-enterococcal activity (in words)” value was “moderate activity”. Also, the “log D6.5” value in data set [6] is recorded as 1.6765. In [6], the “log D7.4” value is reported as 1.6863. Moreover, the IC50 with THP-1 cells worked out at 3.19 ± 0.44 µM.
In the case of `CCCCCCCCNC(=O)Oc1c(C(=O)Nc2cc(Cl)c(Cl)cc2Cl)ccc2ccccc12` [Compound 8, 2-[N-(2,4,5-Trichlorophenyl)carbamoyl]naphthalen-1-yl octyl carbamate], the MBC in data set [1] was determined as 0.958 µM (≈ 0.5 µg/mL); with MRSA 63718 [2] it was 1.92 µM (≈ 1 µg/mL); with MRSA SA 630 [3], 1.92 µM (≈ 1 µg/mL); in the data set with MRSA SA 3202 [4], 1.92 µM (≈ 1 µg/mL). Further, the MIC was 123 µM (≈ 64.2 µg/mL) in data set [5]; 0.479 µM (≈ 0.25 µg/mL) in [7]; 0.958 µM (≈ 0.5 µg/mL) in the data set with MRSA 63718 [8]; 0.479 µM (≈ 0.25 µg/mL) with MRSA SA 630 [9]; 1.92 µM (≈ 1 µg/mL) against MRSA SA 3202 [10]. For the same compound, the “lipophilicity (experimental log k/log D, approximate)” value in [6] is on record as “ca. 1.87”. The “log D6.5” value in [6] is 1.8687. The “log D7.4” value in data set [6] turned out to be 1.8785. The log k in data set [6] was 1.8654. The IC50 in the data set with THP-1 cells stood at 2.61 ± 0.32 µM.
